# According to patent US20250120916A1, “NANOTECHNOLOGY FOR CHEMOTHERA0PY DRUG CAPTURE” (The Regents of the University of California, priority 2021, published 2025):
# Counter-ions that a name gives are not always drawn. Like-named read-outs stand apart in the source and are kept apart here.
# Columns and labels:
# [1] = Hydrodynamic size (DLS) and ζ-potential measurements; format: physicochemical
# Protocol: Hydrodynamic size and ζ-potential measurements: A Zetasizer Nano ZS from Malvern Panalytical Ltd was used to conduct dynamic light scattering (DLS) and electrokinetic measurements in folded capillary cells (DTS1070). Samples were prepared with an ENCC concentration of 0.1 mg mL−1 in 1 mg mL−1 of NaCl solution A final DOX concentration of 0.03 mg mL−1 was used to have an ˜1:10 molar ratio of DOX to the carboxylate of ENCC For ζ-potential measurements on DOX, the concentration was lowered to 0.003 mg mL−1. At least three measurements were taken for each DLS experiment, with 11 runs per measurement. For the ζ-potential tests, the number of measurements was at least three, with up to 100 runs per measurement.
# [2] = system: fibroblast; conditions: literature (75); cited from earlier work
# [3] = system: HUVECs; assay: Biodetoxification test, HUVECs; conditions: untreated DOX 400 μg mL−1 media, 8 h
# Protocol: (§1) Biodetoxification tests: To determine the biodetoxification effect of ENCC, 5×10^3 NIH/3T3 cells or HUVECs were seeded in 96-well plates with 200 μL of DMEM supplemented with FBS (10% v/v) and 1% v/v of Pen-Strep or EGM bullet kit HUVEC media, respectively. The cells were allowed to attach to the bottom of wells for 1 h, the media were aspirated, and the cells were rinsed with 200 μL of DPBS, followed by the addition of 200 μL of corresponding media including DOX (final concentration=400 μg mL−1), which was previously detoxified by adding ENCC (final concentration=1 mg mL−1), centrifuged at 1000 rpm for 3 min, and separated from the precipitate. The control experiments were conducted in corresponding DOX-free cell culture media or DOX-containing media without ENCC treatment. Each group consisted of 5 wells. After 8 h, the media was aspirated, the cells were rinsed twice with 200 μL of DPBS, followed by the addition of 100 μL of PrestoBlue™ reagent to each well. The cells were incubated for 1 h, and then the PrestoBlue™ absorbance was recorded using the microplate reader. Immediately afterwards, the cells were again rinsed twice with 200 μL, of DPBS, followed by the addition of 150 μL, of the Live/Dead reagents. The cells were incubated for 90 min and imaged using the fluorescence microscope. The fluorescence images were analyzed using the Imagej Software.(62)
# [4] = Biodetoxification test, HUVECs; conditions: human
# Protocol: as §1
# [5] = system: NIH/3T3 fibroblasts; assay: Biodetoxification test, NIH/3T3 fibroblasts; conditions: NIH/3T3, untreated DOX 400 μg mL−1 media, 8 h
# Protocol: as §1
# [6] = Biodetoxification test, NIH/3T3 fibroblasts; conditions: mouse, NIH/3T3 fibroblasts
# Protocol: as §1
# [7] = system: red blood cells (RBCs) in human whole blood; assay: Hemolysis assessment (ASTM E2524-08); format: cell-based
# Protocol: Hemolysis assessment: The hemolytic activity of ENCC was measured via exposing human whole blood, withdrawn from 3 healthy volunteer donors by another lab, to varying concentrations of ENCC and measuring the concentration of released hemoglobin in plasma according to the American Society for Testing and Materials (ASTM) E2524-08 (2013) standard analysis of hemolytic activity of nanoparticles.(61) A colorimetric technique was used to measure the oxidation of […] (Drabkin's reagent) at an absorbance of 540 nm A calibration curve was obtained using […] of pure human hemoglobin to quantify the concentration of released hemoglobin in heparinized human whole blood exposed to ENCC The blood samples were diluted in DPBS to have 10±2 mg of hemoglobin per mL. ENCC was added to a microcentrifuge tube, followed by the addition of DPBS (800 μL) and the diluted blood (100 μL). After gently mixing the samples, they were incubated for 3 h±15 min at 37° C. and centrifuged for 15 min at 14000 rpm and ambient temperature. […] A microplate reader (540 nm, BioTek UV/vis Synnergy 2, USA) was then used to measure the relative absorbance of each well against the reagent blank to correct the background (blood-free samples) absorbance. The hemolysis percentage was measured based on the hemoglobin concentration in the samples divided by the total blood hemoglobin (˜10 mg mL−1). […]
# [8] = DOX:COO− ~0.1, ENCC 100 μg mL−1
molecule,measurement,setting,value
"COc1cccc2c1C(=O)c1c(O)c3c(c(O)c1C2=O)C[C@@](O)(C(=O)CO)C[C@@H]3O[C@H]1C[C@H](N)[C@H](O)[C@H](C)O1 [DOX, Doxorubicin hydrochloride]",hydrodynamic size after ENCC addition,[1]; [8],~350 nm
same,ζ-potential after ENCC addition,[1]; [8],~−32 mV
same,hydrodynamic size of DOX aggregates,[1]; before ENCC addition,~66 nm
same,ζ-potential of DOX aggregates,[1]; before ENCC addition,~+24 mV
same,DOX concentration that induces fibroblast cellular toxicity,[2],above 5×10^−5 M
same,decrease in metabolic activity (PrestoBlue),[3],more than 2000%
same,"viability at 8 h, 400 μg mL−1",[4],~35%
same,decrease in metabolic activity (PrestoBlue),[5],more than 2000%
same,"viability at 8 h, 400 μg mL−1",[6],< 10%
Triton X-100,hemolysis percentage (controls),"[7]; Triton X-100 1% v/v positive control, PEG 4.4% v/v negative control",> 95%
polyethylene glycol [PEG],hemolysis percentage (controls),[7],does not induce significant hemolysis
